Values joined by “and” are separate entries in the source; they are usually repeats but may differ in a detail not shown here. Equal entries are not always repeated.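 Five compound concentrations were applied to cells in 96-well plates for 48 hours; endpoints were derived by simple linear interpolation of the resulting dose-response curve. GI50 is the concentration that inhibits growth by half. TGI denotes the concentration required for complete inhibition of growth.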
Key:
Test in all cases: DTP human tumour cell line panel, 48 h
[1] = test system: UO-31 renal
[2] = test system: HCT-15 colon
[3] = test system: SK-MEL-28 melanoma
[4] = test system: HCT-116 colon
[5] = test system: SK-OV-3 ovarian
[6] = test system: EKVX NSCLC
[7] = test system: CAKI-1 renal
[8] = test system: SF-539 CNS
[9] = test system: U251 CNS
[10] = test system: HT29 colon

| Structure (SMILES) | GI50 [1] | TGI [1] | GI50 [2] | TGI [2] | GI50 [3] | TGI [3] | GI50 [4] | TGI [4] | GI50 [5] | TGI [5] | GI50 [6] | TGI [6] | GI50 [7] | TGI [7] | GI50 [8] | TGI [8] | GI50 [9] | TGI [9] | GI50 [10] | TGI [10] |
| --- | --- | --- | --- | --- | --- | --- | --- | --- | --- | --- | --- | --- | --- | --- | --- | --- | --- | --- | --- | --- |
| N#CC(C#N)=C/C=C(\Sc1ccc(Cl)cc1)c1ccc(F)cc1 | 1.85 µM | > 40.3 µM | 1.49 µM | > 33.1 µM | 6.61 µM | 19.3 µM | 0.0671 µM | 0.508 µM | 13.5 µM | 40.7 µM | 15.7 µM | 52.5 µM | 0.465 µM | 2.77 µM | 0.251 µM | 0.872 µM | 1.23 µM | > 34.5 µM | 2.06 µM | > 51.6 µM |
| C=C(CN1CCc2[nH]c3ccc(F)cc3c2C1)c1ccc(C(=O)Nc2ccccc2N)cc1 | 0.997 µM | 4.14 µM | 3.17 µM | 12.6 µM | 3.54 µM | 26.2 µM | 0.367 µM | 5.04 µM | 2.92 µM | 11.8 µM | 5.06 µM | 19.7 µM | 1.93 µM | 5.91 µM | 0.38 µM | 2.32 µM | 2.91 µM | 11.2 µM | 1.8 µM | 31.6 µM |
| O=C1C2C3C=CC(C2C(=O)N1CO)C1C2C(=O)N(CO)C(=O)C2C31 (centres undefined) |  | > 100 µM |  | > 62.9 µM |  | > 100 µM |  | > 59.8 µM |  | > 100 µM |  | > 100 µM |  | > 100 µM |  | > 100 µM |  | > 100 µM |  | > 100 µM |
| CC(C)Cc1ccc(C(C)/C=C2\CCC(CN(C)C)C2=O)cc1 (centres undefined) |  | 23.4 µM |  | 23.1 µM |  | 30.4 µM |  | 23.1 µM |  | 36.5 µM |  | 40.2 µM |  | 32.7 µM |  | 30.4 µM |  | 30.4 µM |  | 31.5 µM |
| CC(=O)Oc1ccc(C2=Cc3ccc(OC(C)=O)cc3OC2C)cc1 (centres undefined) | 2.05 µM | 6.65 µM | 5.07 µM | 26.1 µM | 10.3 µM | 43.4 µM | 4.87 µM | 17.9 µM | 6.56 µM | 67 µM | 2.38 µM | 13.5 µM | 2.31 µM | 5.73 µM | 2.51 µM | 9.07 µM | 4.91 µM | 79.9 µM | 20.7 µM | > 100 µM |
| NNC(=O)C(=O)NN=C(C(Cl)(Cl)CO)C(Cl)(Cl)CO |  | > 100 µM |  | 75.5 µM |  | 97.9 µM |  | 66.1 µM |  | > 100 µM |  | > 100 µM |  | 97.4 µM |  | 61.2 µM |  | 53.2 µM |  | > 100 µM |
| CC(=O)O[C@H]1CC2C(C3CC[C@H](C(C)CCC(=O)O)[C@]31C)[C@H](OC(C)=O)C[C@@H]1CC3(CC[C@]21C)OOC1(CCC(C)CC1)OO3 (some centres undefined) |  | 7.91 µM and 3 µM |  | 13.9 µM and 7.4 µM |  | 11.8 µM and 13.2 µM |  | 13.9 µM and 5.9 µM | 10.6 µM and 3.14 µM | 22.4 µM and 10.7 µM |  | 4.9 µM and 2.9 µM | 6.75 µM and 2.23 µM | 19.1 µM and 6.49 µM | 8.15 µM and 1.94 µM | 20.6 µM and 3.86 µM |  | 17.2 µM and 3.71 µM |  | 12.5 µM and 10.4 µM |
| CC(C)[C@@H]1CC[C@]2(CO2)[C@@H]2C(=O)OCC(C(=O)O)=C[C@H]21 | 0.408 µM | 15.9 µM | 0.378 µM | > 100 µM | 0.207 µM | 0.424 µM | 0.325 µM | > 100 µM | 0.438 µM | > 100 µM | 5.17 µM | > 100 µM | 0.411 µM | > 100 µM | 0.353 µM | > 34.6 µM | 0.343 µM | > 100 µM | 0.352 µM | > 33.9 µM |
| CCCCCCCCCCCC[C@@H](O)[C@H]1CC[C@H]([C@H](O)CC[C@H](O)[C@@H]2CC[C@@H](CCCCCCCC3=C[C@H](C)OC3=O)O2)O1 | 2.51 µM | > 50 µM | 5.07 µM | > 50 µM | 3.37 µM | > 50 µM | 1.7 µM | > 50 µM |  | > 50 µM | 1.69 µM | > 50 µM |  | > 50 µM |  | > 50 µM | 8.63 µM | > 50 µM |  | > 50 µM |
| Cc1nc2ccccc2c(=O)n1/N=C(\N=Nc1ccccc1Cl)c1ccccc1Cl |  | > 100 µM |  | > 100 µM |  | > 100 µM |  | > 100 µM |  | 64.4 µM |  | > 100 µM |  | 63.4 µM |  | > 100 µM |  | > 100 µM |  | > 100 µM |
| CC(=O)NC1C(O[C@H]2C[C@H]3[C@@H]4CC=C5C[C@@H](O)CC[C@]5(C)[C@H]4CC[C@]3(C)[C@H]2[C@H](C)C(=O)CCC(C)C)OCC(O)C1O (some centres undefined) | 1.18 µM | 3.52 µM | 4.38 µM | 10.5 µM | 0.928 µM | 2.78 µM | 1.39 µM | 5.82 µM | 2.01 µM | 8.39 µM | 1.97 µM | 9.37 µM | 1.53 µM | 6.75 µM | 0.568 µM | 2.33 µM | 2.34 µM | 11.5 µM | 5.29 µM | 15.3 µM |

— PubChem BioAssay (NCI)
